Patent EP1614683B1, “Indazole compounds and pharmaceutical compositions for inhibiting protein kinases, and methods for their use” (priority 1999, dated 2001)
Like-named read-outs stand apart in the source and are kept apart here.

Columns and labels:
LCK tyrosine kinase = LCK tyrosine kinase (Homo sapiens, UniProt P06239, C224D/P223M); assay: LCK spectrophotometric assay; type: biochemical; details: Table 1; compound concentration 1 µM; read-out: Lck-P* (% inhibition)
Protocol: The spectrophotometric assay was carried out as described above for VEGF-R2, except for the following changes in concentration: LCK = 60 nM, MgCl2 = 0 mM, poly(E4Y1) = 20 mM.

[1] = test system: human umbilical vein endothelial cells (HUVEC); assay: HUVEC proliferation assay (VEGF-stimulated, MTT); type: cell-based; details: Homo sapiens, HUVEC, Table 1
[2] = test system: lung cancer cells (line MV522); assay: Cancer cell proliferation (MV522) assay; type: cell-based
Protocol: The protocol for assessing cellular proliferation in cancer cells is similar to that used for assessments in HUVEC cells. Two thousand lung cancer cells (line MV522, acquired from American Tissue Cultural Collection) were seeded in growth media (RPMI1640 medium supplemented with 2 mM glutamine and 10% FBS). Cells are allowed to attach for 1 day prior to addition of test agents and /or vehicles. Cells are treated simultaneously with the same test agents used in the HUVEC assay. Cellular proliferation is quantified by MTT dye reduction assay 72 hours after exposure to test agents. The total length of the assay is 4 days vs. 5 for HUVEC cells because MV522 cells are not exposed to starvation medium.

in vitro = in vitro ADME, human; details: human liver microsomes, 5 µM test compound, 37 °C, 2 h; for remaining at 2 h, 5 µM: read-out: % remain (HLM, 2 h)
In short: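 HLM diluted to 5 mg/mL in 100 mM KPO4, preincubated 10 min at 37 °C with NADPH-regenerating system. Compound (5 µM final) incubated at 37 °C in triplicate, sampled at 0 and 2 h into ice-cold acetonitrile, then LC-MS analysis.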

[3] = target: T1, phosphorylated Tie-2 (aa 775-1122) (Homo sapiens, UniProt Q02763); assay: TIE-2 spectrophotometric assay; type: biochemical; details: Table 5; 1 µM; bold values spectrophotometric assay, non-bolded DELFIA assay (bold not visible here); read-out: % Inhibition @ 1 µM Tie2-P
T1 construct: 4 to 12 nM phosphorylated Tie-2 (aa 775-1122); made in house; host or cells: insect cells
Protocol: This construct also carries a R774M mutation, which serves as the initiating methionine residue in translation.
The kinase-catalyzed production of ADP from ATP that accompanies phosphoryl transfer to the random copolymer poly(Glu4 Tyr) was coupled to the oxidation of NADH through the activities of pyruvate kinase (PK) and lactate dehydrogenase (LDH). NADH conversion to NAD* was monitored by the decrease in absorbance at 340 nm (ε = 6.22 cm^-1mM^-1) using a Beckman DU650 spectrophotometer. Typical reaction solutions contained 1 mM phosphoenolpyruvate, 0.24 mM NADH, 40 mM MgCl2, 5 mM DTT, 2.9 mg/mL poly(Glu4Tyr), 0.5 mM ATP, 15 units/mL PK, 15 units/mL LDH in 100 mM HEPES, pH 7.5. […]

human FGF-R1 = human FGF-R1 (Homo sapiens, UniProt P11362, C488A/C584S/L457V); assay: FGF-R spectrophotometric assay; type: biochemical; details: for inhibition at 1 µM: Table 1, compound concentration 1 µM, read-out: FGF-P* (% inhibition)
Protocol: The spectrophotometric assay was carried out as described above for VEGF-R2, except for the following changes in concentration: FGF-R = 50 nM, ATP = 2 mM, and poly(E4Y1) =15 mM.

in vivo = details: mouse, plasma, pH 2.3
[4] = target: unphosphorylated VEGF-R2Δ50 (Homo sapiens, UniProt P35968, DEL940-989/E990V); assay: biochemical; details: read-out: FLVK ** (% inhibition)
[5] = test system: VEGF dependent retinal vascular development; assay: In vivo assay of retinal vascular development in neonatal rats; design: species or system rat; details: Model P8, intravitreal, 5 mg/ml
Protocol: The development of the retinal vascular in rats occurs from postnatal day 1 to postnatal day 14 (P1-P14). […] To assess the ability of specific compounds to inhibit the activity of VEGF in vivo, compounds were formulated in an appropriate vehicle, usually 50% polyethylene glycol, average molecular weight 400 daltons, and 50% solution of 300 mM sucrose in deionized water. […] Six days after the intravitreal injection, the animals were sacrificed and the retinas dissected free from the remaining ocular tissue. […] The individual retinas are then flat-mount onto glass slides and examined to determine the extent of vascularization. […] The amount of vessel regression was used to assess the relative potency of the compounds after in vivo administration.
For more quantitative analysis of regression, images of ADPase-stained, flat-mounted retinas were captured with a digital camera attached to a dissecting microscope. Retinal images were then imported into an image analysis software (Image Pro Plus 4.0, Media Cybernetics, Silver Spring, MD). The software was employed to determine the percentage of the area of the retina that contained stained vessels. This value for the experimental eye was compared to that measured for the vehicle injected, contralateral eye from the same animal. The reduction in the vascular area seen in the eye that received compound as compared to the vehicle-injected eye was then expressed as the "percent regression" for that sample.

[6] = test system: VEGF dependent retinal neovascularization; assay: Neonatal rat model of retinopathy of prematurity; type: in vivo; details: Model ROP, intravitreal, vehicle PEG/water 70:30
Protocol: A second model of VEGF dependent retinal neovascularization was employed to evaluate the activities of this series of compounds. […] The animals are exposed for 24 hours to a concentration of 50% oxygen followed by 24 hours at a concentration of 10% oxygen. This alternating cycle of hyperoxia followed by hypoxia is repeated 7 times after which the animals are removed to room air (P14). Compounds are administered via intravitreal injection upon removal to room air and the animals are sacrificed 6 days later (P20). The isolated retinas are then isolated, stained mounted and analyzed as detail above in the development model. The effectiveness was also graded as is described for the development model.

[7] = + albumin, read-out: HUVEC + albumin IC50
[8] = MV522, Table 1, read-out: MV522 IC50
[9] = PO, 50 mg/kg, vehicle PEG400:H2O pH 2.3 60:40
[10] = mouse, in vivo, ip, 25 mg/kg, pH 2.3
[11] = mouse, in vivo, po, 50 mg/kg, pH 2.3

Sequence of human FGF-R1 (P11362 456-766 L457V/C488A/C584S): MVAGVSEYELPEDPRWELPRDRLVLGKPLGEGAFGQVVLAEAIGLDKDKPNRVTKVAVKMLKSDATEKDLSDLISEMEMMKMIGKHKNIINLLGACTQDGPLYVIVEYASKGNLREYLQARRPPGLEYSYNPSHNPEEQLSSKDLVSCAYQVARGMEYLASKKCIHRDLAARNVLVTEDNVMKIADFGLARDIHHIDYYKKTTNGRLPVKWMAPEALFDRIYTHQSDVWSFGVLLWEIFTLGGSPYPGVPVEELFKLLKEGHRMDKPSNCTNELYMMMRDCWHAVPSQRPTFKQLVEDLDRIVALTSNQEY
Sequence of LCK tyrosine kinase (P06239 223-509 P223M/C224D): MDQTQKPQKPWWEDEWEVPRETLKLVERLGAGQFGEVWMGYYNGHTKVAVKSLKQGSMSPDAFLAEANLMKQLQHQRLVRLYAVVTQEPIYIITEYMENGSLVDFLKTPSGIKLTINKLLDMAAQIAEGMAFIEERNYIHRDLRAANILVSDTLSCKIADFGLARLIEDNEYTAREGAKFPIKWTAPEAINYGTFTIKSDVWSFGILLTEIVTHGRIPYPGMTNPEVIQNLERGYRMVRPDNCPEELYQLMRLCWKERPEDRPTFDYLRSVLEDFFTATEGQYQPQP
T1 sequence (Q02763 775-1122): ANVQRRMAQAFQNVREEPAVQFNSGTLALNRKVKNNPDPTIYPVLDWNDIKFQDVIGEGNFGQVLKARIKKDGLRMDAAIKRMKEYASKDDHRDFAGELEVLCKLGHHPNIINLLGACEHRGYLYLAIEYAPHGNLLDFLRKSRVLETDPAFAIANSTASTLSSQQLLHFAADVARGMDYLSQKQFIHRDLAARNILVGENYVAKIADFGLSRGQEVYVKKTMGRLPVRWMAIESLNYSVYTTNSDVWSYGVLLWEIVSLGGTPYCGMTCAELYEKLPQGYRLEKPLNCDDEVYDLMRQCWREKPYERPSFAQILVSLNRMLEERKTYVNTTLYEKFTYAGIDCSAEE
Sequence of unphosphorylated VEGF-R2Δ50 (P35968 with tags, fused parts or gaps DEL940-989/E990V limits assumed): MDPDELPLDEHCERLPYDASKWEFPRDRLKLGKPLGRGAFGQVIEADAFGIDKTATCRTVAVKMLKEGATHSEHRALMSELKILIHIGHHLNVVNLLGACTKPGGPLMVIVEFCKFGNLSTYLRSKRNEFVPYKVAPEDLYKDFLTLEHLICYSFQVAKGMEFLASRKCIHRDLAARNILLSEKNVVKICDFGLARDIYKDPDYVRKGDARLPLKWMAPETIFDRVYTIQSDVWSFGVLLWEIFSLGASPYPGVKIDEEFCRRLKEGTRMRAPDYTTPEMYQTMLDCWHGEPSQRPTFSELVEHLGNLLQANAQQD

## CC(=O)Nc1cccc(N(C)c2ccc3c(/C=C/c4ccccc4)n[nH]c3c2)c1 [12(a), N-{3-[Methyl-(3-styryl-1H-indazol-6-yl)-amino]-phenyl]-acetamide]
LCK tyrosine kinase
  inhibition at 1 µM: 17%
[1]; [7]
  IC50: 87 nM
[1]; read-out: HUVEC IC50
  IC50: 6 nM
[2]; [8]
  IC50: 2.1 µM

## O=C(Nc1cccc(Cl)c1)c1ccccc1Sc1ccc2c(/C=C/c3ccccn3)n[nH]c2c1 [Reference Example 33(d), 6-[2-(3-chlorophenylcarbamoyl)phenylsulfanyl]-3-E-[2-(pyridin-2-yl)ethenyl]-1H-indazole]
LCK tyrosine kinase
  inhibition at 1 µM: 55%
[1]; [7]
  IC50: > 300 nM
[2]; [8]
  IC50: 8 µM
In vitro
  % remain (HLM, 2 h): 22%

## C=C(c1cccc(NC(=O)c2ccccc2)c1)c1ccc2c(/C=C/c3ccccc3)n[nH]c2c1 [22(b), 6-(1-(3-(Benzoylamido)phenyl)-vinyl)-3-styryl-1H-indazole]
[1]; read-out: HUVEC IC50
  IC50: 4.8 nM
[2]; [8]
  IC50: 8.5 µM

## CC(C)C(=O)Nc1cccc(C(=O)c2ccc3c(/C=C/c4ccccc4)n[nH]c3c2)c1 [19(h), 6-[3-(2-methylpropionamido)benzoyl]-3-E-styryl-1H indazole]
[1]; read-out: HUVEC IC50
  IC50: 600 nM
[2]; [8]
  IC50: 7.9 µM

## Cc1cnc(C(=O)Nc2cccc(Oc3ccc4c(/C=C/c5ccccc5)n[nH]c4c3)c2)s1 [5(a), 5-Methyl-thiazole-2-carboxylic acid {3-(3-styryl-1H-indazol-6-yloxy)-phenyl]-amide]
LCK tyrosine kinase
  inhibition at 1 µM: 28%
[3]
  inhibition at 1 µM: 44%
[1]; read-out: HUVEC IC50
  IC50: 12 nM
[2]; [8]
  IC50: 9.6 µM

## O=C(c1cccc(NC(=O)c2cc(Cl)ccn2)c1)c1ccc2c(/C=C/c3ccccc3)n[nH]c2c1 [19(n), 6-[3-(4-chloropyridin-2-ylcarboxamido)benzoyl)-3-E-styryl-1H-indazole]
Human FGF-R1
  inhibition at 1 µM: 48%
LCK tyrosine kinase
  inhibition at 1 µM: 26%
[1]; [7]
  IC50: 23 nM
[1]; read-out: HUVEC IC50
  IC50: 3.4 nM
[2]; [8]
  IC50: 2.9 µM

## CC(=O)Nc1cccc(Sc2ccc3c(/C=C/c4ccccc4)n[nH]c3c2)c1 [20(a), 6-(3-Acetamido-phenylsulfanyl)-3-styryl-1H-indazole]
[1]; read-out: HUVEC IC50
  IC50: 200 nM
[2]; [8]
  IC50: 9.4 µM

## O=C(c1cccc(NC(=O)c2ccccn2)c1)c1ccc2c(/C=C/c3ccccc3)n[nH]c2c1 [19(k), 6-[3-(pyridin-2-ylcarboxamido)benzoyl)-3-E-styryl-1H-indazole]
Human FGF-R1
  inhibition at 1 µM: 41%
LCK tyrosine kinase
  inhibition at 1 µM: 37%
[1]; read-out: HUVEC IC50
  IC50: 2.6 nM
[2]; [8]
  IC50: 4 µM
In vitro
  % remain (HLM, 2 h): 58%
IP, 25 mg/kg, vehicle PEG400:H2O pH 2.3 60:40
  T1/2: 2.2 h
[9]
  Cmin (7 hr conc.): 4 ng/mL
  T1/2: 2.2 h
In vivo; ip, 25 mg/kg
  AUC: 428 ng·h/mL
In vivo; po, 50 mg/kg
  AUC: 19 ng·h/mL
[4]
  inhibition at 0.05 µM: 100%

## O=C(Nc1cccc(C(=O)c2ccc3c(-c4nc5cccnc5[nH]4)n[nH]c3c2)c1)c1ccccc1 [Example 42(d), 6-(3-benzamidobenzoyl)-3-(3H-imidazo[4,5-b]pyridin-2-yl)-1H-indazole]
[2]; [8]
  IC50: > 10 µM

## COc1cc(-c2ccc3c(-c4ccc5ccccc5c4)n[nH]c3c2)ccc1O [2(a), 3-(Naphthalen-2-yl)-6-(3-methoxy-4-hydroxy-phenyl)-1H-indazole]
[2]; MV522, read-out: MV522 IC50 (µM)
  IC50: 0.58 µM

## CN(c1cccc(NC(=O)c2ccccc2)c1)c1ccc2c(/C=C/c3ccc4c(c3)OCO4)n[nH]c2c1 [16(a), N-(3-{[3-(2-Benzo[1,3]dioxol-5-yl-vinyl)-1H-indazol-6-yl]-methyl-amino}-phenyl)-benzamide]
Human FGF-R1
  inhibition at 1 µM: 65%
LCK tyrosine kinase
  inhibition at 1 µM: 28%
[3]
  inhibition at 1 µM: 10%
[1]; [7]
  IC50: 112 nM
[2]; [8]
  IC50: 8 µM
In vitro
  remaining at 2 h, 5 µM: 7%

## CC(=O)Nc1cccc(Oc2ccc3c(/C=C/c4ccccc4)n[nH]c3c2)c1 [4(b), N-[3-(3-Styryl-1H-indazol-6-yloxy)-phenyl]-acetamide]
Human FGF-R1
  Ki: 4.9 nM
LCK tyrosine kinase
  inhibition at 1 µM: 13%
[3]
  inhibition at 1 µM: 29%
[1]; [7]
  IC50: 205 nM
[1]; read-out: HUVEC IC50
  IC50: 25 nM
[2]; [8]
  IC50: 3.2 µM
In vitro
  remaining at 2 h, 5 µM: 63%

## O=C(c1cccc(NC(=O)c2cccc3[nH]ccc23)c1)c1ccc2c(/C=C/c3ccccc3)n[nH]c2c1 [19(f), 6-[3-(indol-4-ylcarboxamido)benzoyl]-3-E-styryl-1H-indazole]
Human FGF-R1
  inhibition at 1 µM: 58%
LCK tyrosine kinase
  inhibition at 1 µM: 52%
[1]; [7]
  IC50: 16 nM
[1]; read-out: HUVEC IC50
  IC50: 2.3 nM
[2]; [8]
  IC50: 3.9 µM
In vitro
  % remain (HLM, 2 h): 98%

## C/C=C/C(=O)Nc1cccc(C(=O)c2ccc3c(/C=C/c4ccccn4)n[nH]c3c2)c1 [41 (c)]
[5]; vehicle PEG/water 50:50
  Initial Evaluation: ++ (two pluses being judged to be approximately 25-75 % regression)
[6]; 1 mg/ml
  % Inhibition: 16%
[6]; 10 mg/ml
  % Inhibition: 54%
  Initial Evaluation: +++ (three pluses give to retinas with near total regression (approximately 75% or greater))
[10]
  AUCleast: 3397 ng·h/mL
  T1/2: 1.7 h
[11]
  AUCleast: 3182 ng·h/mL
  T1/2: 2.6 h

## O=C(Nc1cccc(Oc2ccc3c(/C=C/c4ccccn4)n[nH]c3c2)c1)c1ccccc1 [Reference Example 31(a), 6-[3-benzamidophenoxy]-3-E-[2-(Pyridin-2-yl)ethenyl]-1H-indazole]
Human FGF-R1
  inhibition at 1 µM: 95%
LCK tyrosine kinase
  inhibition at 1 µM: 77%
[1]; [7]
  IC50: 10 nM
[1]; read-out: HUVEC IC50
  IC50: 0.7 nM
In vitro
  % remain (HLM, 2 h): 58%
[5]; vehicle PEG/water 70:30
  % Inhibition: 46%
IP, 25 mg/kg, vehicle PEG400:H2O pH 2.3 30:70
  T1/2: 2.4 h
PO, 50 mg/kg, vehicle PEG400:H2O pH 2.3 30:70
  T1/2: 1.6 h
In vivo; ip, 25 mg/kg
  AUC: 47500 ng·h/mL
In vivo; po, 50 mg/kg
  AUC: 40900 ng·h/mL
